How the values were obtained:
[1] = target: T1, BuChE (butyrylcholinesterase) (Equus caballus, UniProt P81908); experiment: Ellman assay, […] nm, microplate; assay type: biochemical; details: read-out: IC50 (μg.mL^-1) (converted)
T1 construct: gene BCHE; native enzyme isolated from horse serum

[2] = target: T2, AChE (acetylcholinesterase) (Electrophorus electricus, UniProt O42275); experiment: Ellman assay, […] nm, microplate; assay type: biochemical; details: read-out: IC50 (μg.mL^-1) (converted)
T2 construct: native enzyme isolated from electric eel, type VI-S (printed 'type VIS')
T2 sequence (O42275 24-633): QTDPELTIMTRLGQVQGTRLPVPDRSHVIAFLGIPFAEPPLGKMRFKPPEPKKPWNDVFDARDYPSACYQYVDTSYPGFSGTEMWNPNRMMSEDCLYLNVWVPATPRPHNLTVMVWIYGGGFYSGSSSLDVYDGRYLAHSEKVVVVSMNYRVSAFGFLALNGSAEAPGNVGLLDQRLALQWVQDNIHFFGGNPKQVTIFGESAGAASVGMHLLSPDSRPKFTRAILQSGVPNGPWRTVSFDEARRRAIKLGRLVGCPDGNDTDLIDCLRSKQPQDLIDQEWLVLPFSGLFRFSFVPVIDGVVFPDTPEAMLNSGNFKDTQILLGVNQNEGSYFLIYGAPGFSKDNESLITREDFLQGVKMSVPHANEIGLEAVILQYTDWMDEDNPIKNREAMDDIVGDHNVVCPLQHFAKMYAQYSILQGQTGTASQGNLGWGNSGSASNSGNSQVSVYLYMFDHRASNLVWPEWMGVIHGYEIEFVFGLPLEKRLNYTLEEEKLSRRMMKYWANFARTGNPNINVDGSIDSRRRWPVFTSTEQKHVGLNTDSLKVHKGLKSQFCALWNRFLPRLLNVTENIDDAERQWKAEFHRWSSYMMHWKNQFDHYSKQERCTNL

T1 sequence (P81908 whole entry): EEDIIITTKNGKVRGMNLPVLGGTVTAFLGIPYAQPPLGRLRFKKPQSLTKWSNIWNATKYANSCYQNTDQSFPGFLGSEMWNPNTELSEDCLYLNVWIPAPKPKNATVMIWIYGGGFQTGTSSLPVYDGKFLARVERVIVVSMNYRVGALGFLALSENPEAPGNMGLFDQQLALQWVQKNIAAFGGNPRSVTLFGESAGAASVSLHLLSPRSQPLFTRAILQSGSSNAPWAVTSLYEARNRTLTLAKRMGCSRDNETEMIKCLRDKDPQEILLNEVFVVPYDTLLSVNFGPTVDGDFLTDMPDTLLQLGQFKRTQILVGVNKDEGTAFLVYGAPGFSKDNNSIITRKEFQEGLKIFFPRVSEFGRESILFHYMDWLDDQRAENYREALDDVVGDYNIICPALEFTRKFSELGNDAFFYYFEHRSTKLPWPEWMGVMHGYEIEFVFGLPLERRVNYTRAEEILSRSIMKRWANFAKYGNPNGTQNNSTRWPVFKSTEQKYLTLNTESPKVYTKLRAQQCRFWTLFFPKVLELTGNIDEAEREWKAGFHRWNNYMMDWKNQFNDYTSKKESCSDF

Q: `COc1cc(/C=C/C(=O)O)ccc1O` [ferulic acid] was tested. Which IC50 [1] did it give?
A: The IC50 was 2680 µM.

Q: And the IC50 [2]?
A: Its IC50 is 2100 µM.

Reference: article PMC10938454, “Preparation, Characterization, Antioxidant Activities, and Determination of Anti-Alzheimer Effects of PLGA-Based DDSs Containing Ferulic Acid” (ACS Omega, 2024)
